From US10973896B2, “Treatment or prevention of melanoma using photochemical internalization of a melanoma antigen” (PCI Biotech AS, priority 2014, dated 2021)

What was measured:
Type in all cases: in vivo, C57BL/6 mice
[1] = system: SIINFEKL-specific CD8 T cells; test: PCI immunisation of OT-I-spiked mice, SIINFEKL pentamer flow cytometry (Example 2)
Protocol: One day prior to the immunisation, spleens and lymph nodes were isolated from female OT-1 mice, and erythrocytes were removed by lysis (RBC Lysing Buffer Hybri-Max from Sigma-Aldrich) from the homogenised cell suspensions. The remaining cells were washed in PBS, filtered through 70 micron nylon strainers, and 2×10^6 OT-1 cells were administered by intravenous injection into recipient female C57BLJ6 mice; the adoptive transfer of SIINFEKL-specific CD8 T cells facilitates monitoring of the immune response by flow cytometry. One day or 8 hours later, mice were bled by tail bleeding, and the blood was collected in heparin-containing tubes for analysis of the baseline frequency of OVA-specific CD8 T cells.
Then, the mice were shaved on the abdominal area, and the vaccines, consisting of OVA or of a mixture of OVA and TPCS2a, were injected intradermally using syringes with 29G needles. The vaccines were kept light protected and used within 60 minutes of preparation. The vaccines were given in two injections of 50 μl each, on the left and right side of the abdominal mid line. OVA was tested at 10 to 100 μg per dose. The TPCS2a dose was 7.5 to 250 μg.
On day 0, prior to vaccination and on various days thereafter (e.g. day 6, 7, 8, 9, 14, 23, as indicated) mice were bled by tail bleeding and erythrocytes were removed by lysis, before analysis of antigen-specific CD8 T cells by flow cytometry. At the end of the experiment (typically 11, 12, 14 or 23 days), the mice were euthanized and the splenocytes analysed ex vivo. At various time points after the TPCS2a injection (0-48 hours), the mice were anaesthetised by intraperitoneal injection of a mixture of ketamine (25 mg/kg body weight) and xylazin (4 mg/kg) and placed on a light source (for illumination and activation of the photosensitiser TPCS2a). The light dose was 6 minutes, if not otherwise stated. The whole procedure is illustrated in the scheme of FIG. 6A. The illumination of mice using LumiSource™ is imaged in FIG. 6B.
The frequency of OVA-specific CD8 T-cells in blood was monitored by staining the cells with anti-CD8 antibody and H-2K^b/SIINFEKL ProS pentamer (Proimmune, Oxford, UK) for analysis by flow cytometry. The activation status of the cells was further analysed by testing the expression of CD44 and CD69 by flow cytometry. Intracellular staining for IFN-γ was done after overnight stimulation of splenocytes in 24-well plates with the CD8 epitope OVA257-264 (SIINFEKL) at 37 ° C. Brefeldin A was added during the last 4 hours. The cells were then washed and fixed with 4% formaldehyde in PBS for 10 min on ice. Anti-CD16/32 was added to block unspecific binding to Fc receptors. The cells were then permeabilised with 0.1% NP40 in PBS for 3 min and washed before staining with anti-IFN-γ, anti-CD8 and ant-CD44 antibodies (eBioscience or BD Pharmingen). The cells were acquired using FACSCanto (BD Biosciences, San Jose, USA) and analysed using FlowJo 8.5.2 software (Tree Star, Inc., Ashland, Oreg.).

[2] = system: spleen cells restimulated by SIINFEKL peptide; test: Poly(IC) and CpG experiment, IFN-gamma ELISA of restimulated spleen cells (Example 4); details: day 14 spleen cells; FIG. 19B
Protocol: For ELISA analysis 2×10^5 splenocytes were re-stimulated in 96-well plates with 0.005 μg/ml of the SIINFEKL peptide. After 72 hours, supernatants were collected and analysed for IFN-γ by ELISA (eBioscience—performed according to the manufacturer's instructions).
The experiment was performed as described under Materials and Methods, and mouse blood samples from day 7 after vaccination were analysed by flow cytometry as described. Spleen cells from day 14 were restimulated by SIINFEKL peptide and analysed by Interferon-gamma ELISA as described. All mice received OT-1 cells as described. • The following experimental groups were included: • 1. Untreated: Mice received OT-1 cells, but were not vaccinated or illuminated. • 2. OVA: Mice were vaccinated with 10 μg of OVA. They were not illuminated. • 3. OVA 100 μg: Mice were vaccinated with a mixture of 100 μg OVA. They were not illuminated. • 4. OVA 10 μg PCI: Mice were vaccinated with a mixture of 10 μg OVA+150 μg TPCS2a. Illuminated as described. • 5. CpG OVA: Mice were vaccinated with a mixture of 10 μg OVA+50 μg ODN2935 CpG oligonucleotide. They were not illuminated. • 6. CpG OVA/PCI: Mice were vaccinated with a mixture of 10 μg OVA+50 μg ODN2935 CpG oligonucleotide+150 μg TPCS2a. Illuminated as described. • 7. Poly(IC) OVA: Mice were vaccinated with a mixture of 10 μg OVA+50 μg Poly(IC). They were not illuminated. • 8. […]

[3] = system: OVA-expressing B16-melanoma tumours; test: Histological analysis of tumour and tumour infiltrates (Example 1); details: immune histochemistry; FIG. 3A
Protocol: C57BLJ6 mice received 500,000 OVA-expressing B16-melanoma cells intradermally as described above. Six days later, the mice were vaccinated with 10 μg OVA ±100 μg TPCS2a as described above. On day 7, the mice were treated with 4.86 J/cm2 light. On day 15, the mice were euthanized and the tumours excised and cut in two pieces, one snap frozen in liquid nitrogen and one fixed in formalin (2 days) and 60% ethanol before embedded in paraffin. The frozen tissues were sectioned and stained with anti-mouse CD8, CD4, and caspase-3 antibodies for immune histochemistry. Paraffin sections were stained with haematoxylin and eosin.

## OVA: Chicken ovalbumin protein, model antigen expressed by the transfected B16 melanoma cells
[1]; 10 μg OVA alone, data not shown
  effect on SIINFEKL-specific CD8 T cells in blood as compared to untreated animals: no measurable effect
[1]; by day six
  activation markers CD44, CD25 and CD69 on SIINFEKL-specific cells in blood: strong up-regulation
[1]; day 23, OVA alone, or OVA plus TPCS2a illuminated two hours after administration
  numbers of antigen-specific CD8 T cells: retracted to baseline levels
[1]; day 54, 20 μg OVA with or without 200 μg TPCS2a, FIG. 14A
  frequencies of measurable SIINFEKL-specific CD8 T cells in splenocytes: not different from untreated mice
[1]; day six, 100 μg OVA alone, or with 25 μg TPCS2a illuminated two hours after vaccination
  frequency of SIINFEKL-specific CD8 T cells in the peripheral blood: approximately 3.5%
[2]
  IFN-gamma ELISA after restimulation of spleen cells with SIINFEKL peptide: virtually no effect
[3]
  infiltration of CD8 T cells into the intradermal tumour: no benefit compared to no treatment
